We go through 18 compounds from patent publication US10179125B2, “Substituted pyridines as bromodomain inhibitors” (Zenith Epigenetics Ltd., priority 2014, dated 2019).

The subject of one assay is cMYC. As to the kind of experiment: Inhibition of cMYC expression in MV4-11 cells (real-time PCR). Format: cell-based, Human. Particulars: 3 h, cMYC mRNA; for IC50: Homo sapiens, read-out: c-myc activity. The procedure:
MV4-11 cells (CRL-9591) were plated at a density of 2.5×10^4 cells per well in 96 well U-bottom plates and treated with increasing concentrations of test compound or DMSO (0.1%) in IMDM media containing 10% FBS and penicillin/streptomycin, and incubated for 3 h at 37° C. Triplicate wells were used for each concentration. Cells were pelleted by centrifugation and harvested using the mRNA Catcher PLUS kit according to manufacturer's instructions. The eluted mRNA isolated was then used in a one-step quantitative real-time PCR reaction, using components of the RNA UltraSense™ One-Step Kit (Life Technologies) together with Applied Biosystems TaqMan® primer-probes for cMYC and Cyclophilin, Real-time PCR plates were run on a ViiA™7 real time PCR machine (Applied Biosystems), data was analyzed, normalizing the Ct values for cMYC to an internal control, prior to determining the fold expression of each sample, relative to the control.

Another assay concerns hIL-6. In words: Inhibition of hIL-6 mRNA transcription in LPS-stimulated U937 cells. Particulars: 1 h pretreatment, LPS 3 h; for IC50: Homo sapiens, U-937, PMA-differentiated U937 cells, read-out: IL-6 activity. Format: cell-based, Human. The procedure: Human leukemic monocyte lymphoma U937 cells (CRL-1593.2) were plated at a density of 3.2×10^4 cells per well in a 96-well plate in 100 μL RPMI-1640 containing 10% FBS and penicillin/streptomycin, and differentiated into macrophages for 3 days in 60 ng/mL PMA ([…]) at 37° C. in 5% CO2 prior to the addition of compound. The cells were pretreated for 1 h with increasing concentrations of test compound in 0.1% DMSO prior to stimulation with 1 ug/mL lipopolysaccharide from Escherichia coli. Triplicate wells were used for each concentration. The cells were incubated at 37° C., 5% CO2 for 3 h before the cells were harvested. At time of harvest, media was removed and cells were rinsed in 200 μL PBS. Cells were harvested using the mRNA Catcher PLUS kit according to manufacturer's instructions. The eluted mRNA was then used in a one-step quantitative real-time PCR reaction using components of the RNA UltraSense™ One-Step Kit (Life Technologies) together with Applied Biosystems TaqMan® primer-probes for hIL-6 and Cyclophilin. Real-time PCR plates were run on a ViiA™7 real time PCR machine (Applied Biosystems), data was analyzed, normalizing the Ct values for hIL-6 to an internal control, prior to determining the fold expression of each sample, relative to the control.

In assay [1] the target is T1, Brd4 bromodomain 1 (BRD4(1)) (Homo sapiens, UniProt O60885).
T1 construct: made in house; host or cells: E. coli BL21(DE3)
In words: Inhibition of tetra-acetylated histone H4 binding to BET bromodomain (HTRF/FRET). The settings on record: His-tagged bromodomain 200 nM, biotinylated tetra-acetylated histone H4 peptide, 2 h room temperature. The method, then:
Proteins were cloned and overexpressed with a N-terminal 6×His tag, then purified by nickel affinity followed by size exclusion chromatography. Briefly, E. coli BL21(DE3) cells were transformed with a recombinant expression vector encoding N-terminally Nickel affinity tagged bromodomains from Brd2, Brd3, Brd4. Cell cultures were incubated at 37° C. with shaking to the appropriate density and induced overnight with IPTG. The supernatant of lysed cells was loaded onto Ni-IDA column for purification, Eluted protein was pooled, concentrated and further purified by size exclusion chromatography. Fractions representing monomeric protein were pooled, concentrated, aliquoted, and frozen at −80° C. for use in subsequent experiments.
Binding of tetra-acetylated histone H4 and BET bromodomains was confirmed by a Homogenous Time Resolved Fluorescence Resonance Energy Transfer (HTRF®) method, N-terminally His-tagged bromodomains (200 nM) and biotinylated tetra-acetylated histone H4 peptide (25-50 nM, Millipore) were incubated in the presence of Europium Cryptate-labeled streptavidin (Cisbio Cat, #610SAKLB) and XL665-labeled monoclonal anti-His antibody (Cisbio Cat.1461HISXLB) in a white 96 well microtiter plate (Greiner). For inhibition assays, serially diluted test compound was added to these reactions in a 0.2% final concentration of DMSO. Duplicate wells were used for each concentration tested. Final buffer concentrations were 30 mM HEPES pH 7.4, 30 mM NaCl, 0.3 mM CHAPS, 20 mM phosphate pH 7.0, 320 mM KF, 0.08% BSA. After a 2 h incubation at room temperature, fluorescence was measured at 665 and 620 nm with a SynergyH4 plate reader (Biotek). The binding inhibitory activity was shown by a decrease in […] relative to 620 nm fluorescence. IC50 values were determined from a dose response curve.
For orientation: Time-resolved FRET reads energy transfer from a long-lived donor to a nearby acceptor.

For the next assay, the system named is Human AML MV-4-11 cells. In words: Inhibition of cell proliferation in MV4-11 cells (CellTiter Aqueous One). Particulars: 72 h; for IC50: Homo sapiens. Format: cell-based. The method, then: MV4-11 cells (CRL-9591) were plated at a density of 5×10^4 cells per well in 96 well flat bottom plates and treated with increasing concentrations of test compound or DMSO (0.1%) in IMDM media containing 10% FBS and penicillin/streptomycin. Triplicate wells were used for each concentration and a well containing only media was used as a control. Plates were incubated at 37° C., 5% CO2 for 72 h before adding 20 μL of the CellTiter Aqueous One Solution (Promega) to each well and incubated at 37° C., 5% CO2 for an additional 3-4 h. The absorbance was read at 490 nm in a spectrophotometer and the percentage of cell titer relative to DMSO-treated cells was calculated after correcting for background by subtracting the blank well's signal. IC50 values were calculated using the GraphPad Prism software.

Structures are written as SMILES.

For the compound `COc1ncc(-c2c(C)noc2C)cc1Nc1ccc(C#N)cc1` [Example 35, 4-((5-(3,5-dimethylisoxazol-4-yl)-2-methoxypyridin-3-yl)amino)benzonitrile], the IC50 in the assay with cMYC is 3000 to 30000 nM; in the assay with hIL-6, 300 to 3000 nM; in assay [1], at most 300 nM; with Human AML MV-4-11 cells, 3000 to 30000 nM.

On to `COc1ncc(-c2c(C)noc2C)cc1NCc1ccc(C#N)s1` [Example 50, 5-(((5-(3,5-dimethylisoxazol-4-yl)-2-methoxypyridin-3-yl)amino)methyl)thiophene-2-carbonitrile], for which the IC50 with cMYC was 300 to 3000 nM; in assay [1], at most 300 nM; in the assay on Human AML MV-4-11 cells, 3000 to 30000 nM. Further, the IL-6 activity entry with hIL-6 (PMA-differentiated U937 cells) is “Not Active”.

Take `COc1ncc(-c2c(C)noc2C)cc1Nc1cccc(F)c1` [Example 3, 5-(3,5-dimethylisoxazol-4-yl)-N-(3-fluorophenyl)-2-methoxypyridin-3-amine]: the IC50 with cMYC was 300 to 3000 nM; in the assay with hIL-6, 300 to 3000 nM; in assay [1], at most 300 nM; with Human AML MV-4-11 cells it was 3000 to 30000 nM.

`COc1ncc(-c2c(C)noc2C)cc1NCc1ccncc1` [Example 17, 5-(3,5-dimethylisoxazol-4-yl)-2-methoxy-N-(pyridin-4-ylmethyl)pyridin-3-amine]: the IC50 in the assay on cMYC lay in the range of 3000 to 30000 nM; in the assay on hIL-6, 300 to 3000 nM; in assay [1] it was 300 to 3000 nM; in the assay on Human AML MV-4-11 cells, 3000 to 30000 nM.

With `COc1ncc(-c2c(C)noc2C)cc1NCc1nc2ccccc2s1` [Example 57, N-(benzo[d]thiazol-2-ylmethyl)-5-(3,5-dimethylisoxazol-4-yl)-2-methoxypyridin-3-amine], the IC50 was 300 to 3000 nM in the assay with cMYC, 300 to 3000 nM in the assay with hIL-6, at most 300 nM in assay [1] and 3000 to 30000 nM in the assay on Human AML MV-4-11 cells.

`COc1ncc(-c2c(C)noc2C)cc1NCc1ccc2ccccc2c1` [Example 44, 5-(3,5-dimethylisoxazol-4-yl)-2-methoxy-N-(naphthalen-2-ylmethyl)pyridin-3-amine]: the IC50 was 3000 to 30000 nM in the assay with cMYC, 3000 to 30000 nM in the assay with hIL-6, at most 300 nM in assay [1] and 3000 to 30000 nM with Human AML MV-4-11 cells.

Turning to `COc1ncc(-c2c(C)noc2C)cc1Nc1c(C)nn(C)c1C` [Example 60, 5-(3,5-dimethylisoxazol-4-yl)-2-methoxy-N-(1,3,5-trimethyl-1H-pyrazol-4-yl)pyridin-3-amine], the IC50 is at most 300 nM with cMYC, at most 300 nM in the assay with hIL-6, at most 300 nM in assay [1] and 300 to 3000 nM with Human AML MV-4-11 cells.

With `COc1ncc(-c2c(C)noc2C)cc1NCc1nc2ccccc2[nH]1` [Example 53, N-((1H-benzo[d]imidazol-2-yl)methyl)-5-(3,5-dimethylisoxazol-4-yl)-2-methoxypyridin-3-amine], the c-myc activity entry in the assay on cMYC was “Not Active”. For the same compound, the IC50 in the assay on hIL-6 lay in the range of 3000 to 30000 nM; in assay [1], 300 to 3000 nM. Moreover, the “Cell Proliferation activity” value in the assay on Human AML MV-4-11 cells is listed as “Not Active”.

For the compound `COc1ncc(-c2c(C)noc2C)cc1NCc1cc(C)sc1C` [Example 20, 5-(3,5-dimethylisoxazol-4-yl)-N-((2,5-dimethylthiophen-3-yl)methyl)-2-methoxypyridin-3-amine], the IC50 in the assay with cMYC is 3000 to 30000 nM; in the assay on hIL-6, 300 to 3000 nM; in assay [1] it was at most 300 nM; in the assay on Human AML MV-4-11 cells, 3000 to 30000 nM.

As to `COc1ncc(-c2c(C)noc2C)cc1Nc1cc(C(N)=O)ccc1C` [Example 62, 3-((5-(3,5-dimethylisoxazol-4-yl)-2-methoxypyridin-3-yl)amino)-4-methylbenzamide], the IC50 was 300 to 3000 nM in the assay on cMYC, 300 to 3000 nM in the assay on hIL-6, at most 300 nM in assay [1] and 3000 to 30000 nM in the assay with Human AML MV-4-11 cells.

For `COc1ncc(-c2c(C)noc2C)cc1Nc1cc(C#N)ccc1C` [Example 61, 3-((5-(3,5-dimethylisoxazol-4-yl)-2-methoxypyridin-3-yl)amino)-4-methylbenzonitrile], the c-myc activity entry in the assay on cMYC is on record as “Not Active”. For the same compound, the IC50 is 3000 to 30000 nM in the assay with hIL-6 and at most 300 nM in assay [1]. Moreover, the “Cell Proliferation activity” value in the assay on Human AML MV-4-11 cells is “Not Active”.

Turning to `COc1ncc(-c2c(C)noc2C)cc1Nc1ccc(Cl)cc1` [Example 36, N-(4-chlorophenyl)-5-(3,5-dimethylisoxazol-4-yl)-2-methoxypyridin-3-amine], the IC50 is 300 to 3000 nM in the assay on cMYC, 3000 to 30000 nM in the assay on hIL-6, at most 300 nM in assay [1] and 300 to 3000 nM with Human AML MV-4-11 cells.

As for `Cc1noc(C)c1-c1cnc(Oc2ccccc2)c(NCc2nccs2)c1` [Example 52, 5-(3,5-dimethylisoxazol-4-yl)-2-phenoxy-N-(thiazol-2-ylmethyl)pyridin-3-amine], the IC50 with cMYC is 3000 to 30000 nM; in the assay with hIL-6 it was 300 to 3000 nM; in assay [1], at most 300 nM; in the assay on Human AML MV-4-11 cells, 3000 to 30000 nM.

Regarding `COc1ncc(-c2c(C)noc2C)cc1NC(C)c1ccccc1` (stereo not drawn) [Example 5, 5-(3,5-dimethylisoxazol-4-yl)-2-methoxy-N-(1-phenylethyl)pyridin-3-amine], the IC50 (in the assay on cMYC; in the assay with hIL-6; in assay [1]; in the assay on Human AML MV-4-11 cells) was 300 to 3000 nM throughout.

As for `Cc1noc(C)c1-c1cnc(OC(C)C)c(NCc2ccccc2)c1` [Example 27, N-benzyl-5-(3,5-dimethylisoxazol-4-yl)-2-isopropoxypyridin-3-amine], the IC50 in the assay on cMYC was 3000 to 30000 nM; in the assay with hIL-6, 300 to 3000 nM; in assay [1], at most 300 nM; in the assay on Human AML MV-4-11 cells it was 3000 to 30000 nM.

Take `COc1ncc(-c2c(C)noc2C)cc1NCc1ccc(C#N)cc1F` [Example 28, 4-(((5-(3,5-dimethylisoxazol-4-yl)-2-methoxypyridin-3-yl)amino)methyl)-3-fluorobenzonitrile]: the IC50 in the assay with cMYC was 3000 to 30000 nM; with hIL-6, 300 to 3000 nM; in assay [1] it was at most 300 nM; in the assay with Human AML MV-4-11 cells it was 300 to 3000 nM.

With `CNc1ncc(-c2c(C)noc2C)cc1NCc1ccsc1` [Example 68, 5-(3,5-dimethylisoxazol-4-yl)-N2-methyl-N3-(thiophen-3-ylmethyl)pyridine-2,3-diamine], the IC50 in the assay with cMYC was 300 to 3000 nM; in the assay with hIL-6, 300 to 3000 nM; in assay [1], at most 300 nM; with Human AML MV-4-11 cells, 300 to 3000 nM.

For the compound `CNc1ncc(-c2c(C)noc2C)cc1NCc1ccc(C#N)s1` [Example 54, 5-(((5-(3,5-dimethylisoxazol-4-yl)-2-(methylamino)pyridin-3-yl)amino)methyl)thiophene-2-carbonitrile], the IC50 with cMYC is 300 to 3000 nM; in the assay with hIL-6, 300 to 3000 nM; in assay [1], at most 300 nM; with Human AML MV-4-11 cells it was 3000 to 30000 nM.
